Test results from patent publication US6319910A, “Method for inhibiting cyclooxygenase-2 and tumor necrosis factor alpha” (Hospital for Joint Diseases, priority 1998, dated 2001).

What was measured:
[1] = system: RAW 264.7 cells; assay: Nitrite (NO) production/accumulation in LPS-stimulated RAW 264.7 cells; type: cell-based, murine; conditions: for inhibition at 10 µg/mL: Mus musculus, RAW264.7, 16 h
Procedure: (§1) Murine macrophages (RAW 263.7 cells) which were grown in Dulbecco's modified eagle medium (DMEM) containing 10% fetal bovine serum, 2 mM glutamine, 50 U/ml penicillin and 50 μg/ml streptomycin, were stimulated with 100 ng/ml LPS to induce both NOS and COX-2 at 16 hr. […] The data presented in FIG. 1 represents mean±SD as examined by T test were n=3.
(§2) The effects of CMTs 1, 2, 3, 5 and 8 on PGE2 and NO accumulation in RAW 264.7 cells were further evaluated as described above for CMT-3. […]

[2] = system: RAW 264.7 cells; assay: PGE2 production/accumulation in LPS-stimulated RAW 264.7 cells; type: cell-based, murine; conditions: for inhibition at 10 µg/mL: Mus musculus, RAW264.7, 16 h, read-out: PGE2 % Inhibition or (Increase)
Procedure: as §1, §2

[3] = system: TNFα; assay: TNFα release in the medium by HEK 293 cells permanently transfected with human proTNFα (ELISA); type: cell-based; conditions: words; for Effect on spontaneous TNFα release: FIG. 8, 16 hours
Procedure: HEK 293 cells were transfected with the proTNFα cDNA (wild) to prepare a stable cell line. […] A mutant form of proTNFα cDNA which could not be cleaved by the endogenous TNFα convertase (TACE) to release soluble TNFα was also transfected in separate human HEK 293 cells. The soluble TNFα was estimated by ELISA from the wild type and mutant transfected cells from the medium (FIG. 6).
HEK 293 cells were grown as previously described by American Type Culture Collection (ATCC). […] The HEK 293 cells were incubated with CMT-3 to examine the effects of CMT-3 on TNFα release in the medium.
HEK 293 cells were grown under the conditions previously described by ATCC. Various compounds, including CMT-3 and doxycycline/minocyclines were incubated with proTNFα transfected HEK 293 cells releasing TNFα in the medium at 16 hours. […] Soluble TNFα was estimated by ELISA from the medium.

[4] = system: OA-affected cartilage; assay: Spontaneous nitrite/nitric oxide release by OA-affected cartilage (ex vivo organ culture); type: cell-based, human; conditions: Table 2; 5 μg/ml
Procedure: (§3) Human osteoarthritis affected cartilage spontaneously release nitric oxide (NO) and PGE2 in the medium as previously reported (Amin et al, 1995a; 1997a). The OA-organ cultures were set up as described (Amin et al, 1995a; 1997a). Briefly, total knee articular cartilage from tibial plateau and femoral condyle were harvested from OA-affected patients. The cartilage was mixed and cut into 3-mm discs and 4-6 discs were placed in triplicate or quadruplicate, in a 24-well plate in 2.0 ml of Ham's F-12 medium supplemented with 0.2% endotoxin free human albumin, 10 mM Hepes pH 7.4 and antibiotics in the presence of various modulators, as previously described (Amin et al, 1995a; 1997a). CMT-8 was used at pharmacologically relevant concentrations in DMSO (<0.01% final concentration) as carrier. An equivalent amount of DMSO was also added in the control cultures.
(§4) The p value between control and CMT-8 treated values for PGE2≤0.1 (insignificant) whereas the p values between NMMA treated cartilage and CMT-8 treated cartilage was ≤0.001 (significant). The data are represented as mean±SD as examined by T test when n=3. Data represent±SD value as determined by Student's t test n=4. The P values described are compared with control unstimulated OA-cartilage. The data represents one of the two similar experiments. P values for PGE2 and Nitrite=^a≤0.5; ^b≤0.1; ^c≤0.05; ^d≤0.01.

[5] = system: OA-affected cartilage; assay: Spontaneous PGE2 release by OA-affected cartilage (ex vivo organ culture); type: cell-based, human; conditions: Table 2; 5 μg/ml
Procedure: as §3, §4

[6] = system: NOS; assay: NOS expression in LPS-stimulated murine macrophages; type: cell-based; conditions: FIG. 2; LPS 100 ng/ml; words
Procedure: (§5) RAW 263.7 cells were grown as previously described (Amin et al, 1995b). Murine macrophages stimulated with 100 ng/ml LPS were incubated with CMT-3 or tunicamycin (a glycosylation inhibitor). […] Nitrite and PGE2 were estimated as previously described (Amin et al, 1995b). It is quite possible that CMT-3 may inhibit COX-2 and PGE2 production by post translational modification of COX-2 which may be similar to tunicamycin inhibition. The data represents the mean±SD evaluated by T test (n=3).

[7] = system: COX-2; assay: Expression/modification (size) of COX-2 in LPS-stimulated murine macrophages, Western blot; type: cell-based; conditions: LPS 100 ng/ml, words
Procedure: as §5
Murine macrophage cells were cultivated as previously described (Amin et al, 1995b). […] cells were stimulated with 100 ng/ml of LPS in the presence of CMT-3, CMT-5 and glycosylation inhibitor, tunicamycin. The cells were grown for 16 hr and harvested. The cell free extracts were prepared as previously described (Amin et al, 1995b). In FIG. 4A, 50 μg of protein was loaded in each well and run on SDS-PAGE gels and blotted onto Western blots using a specific anti COX-2 antibody as previously described (Amin et al, 1997a). The positive control is a standard COX-2. […] The size is approximately 2000 D smaller (CMT-3 form) than the native COX-2 shown as a standard. […] These experiments indicate that CMT-3 induces modification of the COX-2 protein. The SDS PAGE analysis and Western blotting of COX-2 was carried out as described above.

[8] = biological target: T1, COX-2 (Mus musculus, UniProt Q05769); assay: COX-2 specific activity in cell-free extracts of LPS-stimulated RAW 264.7 cells (PGE2 by RIA); type: biochemical, murine
T1 construct: using total unfractionated cell extracts; endogenous in cells; host or cells: RAW 264.7 cells, LPS-induced; cell-free extract
T1 sequence (Q05769 18-604): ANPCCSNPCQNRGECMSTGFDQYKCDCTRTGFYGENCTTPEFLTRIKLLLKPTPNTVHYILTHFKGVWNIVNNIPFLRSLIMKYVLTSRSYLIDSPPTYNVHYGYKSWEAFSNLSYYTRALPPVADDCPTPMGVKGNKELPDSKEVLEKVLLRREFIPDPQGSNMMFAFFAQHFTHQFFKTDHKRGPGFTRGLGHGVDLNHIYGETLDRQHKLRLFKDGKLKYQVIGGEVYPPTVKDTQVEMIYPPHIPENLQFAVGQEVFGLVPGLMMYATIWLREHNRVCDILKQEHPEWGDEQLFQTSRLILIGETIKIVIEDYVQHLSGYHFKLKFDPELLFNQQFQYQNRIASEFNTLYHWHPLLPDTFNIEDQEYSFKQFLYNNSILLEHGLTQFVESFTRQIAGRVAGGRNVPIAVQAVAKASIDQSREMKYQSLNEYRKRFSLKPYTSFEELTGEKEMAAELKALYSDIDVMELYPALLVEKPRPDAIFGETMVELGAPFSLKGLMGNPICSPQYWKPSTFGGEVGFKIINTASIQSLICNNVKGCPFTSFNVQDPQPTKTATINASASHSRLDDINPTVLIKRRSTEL
Procedure: Raw 264.7 cells were stimulated with LPS and cell-free extracts were prepared as follows. RAW 264.7 cells were induced with LPS (100 ng/ml) in the presence or absence of tetracyclines or hydrocortisone for 14-20 hours. Following induction, the cells were pelleted at 4° C. and resuspended in Tris buffer: 10 mM, pH 7.4 containing 10 μg/ml each of chymostatin, antipain, leupeptin and pepstatin, 1 mM DDT and 1 mM PMSF. Cells were lysed in a Polytron PA 1200 homogenizer (Kinematica AG, Switzerland) with the cocktail of protease inhibitors after 3 cycles of rapid freeze-thawing. The lysate was centrifuged at 18,000 at 4° C. in an eppendorf centrifuge, and the resulting supernatant was used as cell-free extracts. The protein was measured by BCA assay reagent (Pierce, Rockford, Ill.) using BSA as standard. […] The specific enzyme activity was defined as ng of PGE2 released/mg protein/37° C. for 20 minutes.
RAW 264.7 cells were stimulated with 1 μg/ml of LPS for 16 hours and cell-free extracts were prepared as described above. The extracts were incubated with different modulators for 20 minutes at 37° C. before adding the substrate to initiate the enzyme reaction, which was terminated after 30 minutes by heat inactivation. The data represent one of the two experiments, the PGE2 analysis from each sample was done in triplicates n=3. The p value is a comparison between control and experimentals.

[9] = Experiment II, LPS 100 ng/ml, compound 10 μg/ml, 16 hours
[10] = Experiment I, LPS 100 ng/ml, compound 10 μg/ml, 16 hours

**Q.** Which results are given for `CN(C)C1C(=O)C(C#N)=C(O)C2(O)C(=O)C3=C(O)c4c(O)cccc4C(C)(O)C3CC12` (stereo not shown) [CMT-2]?
**A.** Nitrite [1, 9]: 23.3 ± 3.5 µM; PGE2 accumulation [2, 10]: 26.8 ± 8.8 ng/mL; PGE2 accumulation [2, 9]: 22.9 ± 5.0 ng/mL; Effect on spontaneous TNFα release [3]: not CMT-2 and CMT-5, inhibit the spontaneous TNFα release; Nitrite [4]: 84.0 ± 20.0 µM; PGE2 [5]: 145.2 ± 61.6 ng/mL

**Q.** Which results are given for tunicamycin [reference compound]?
**A.** Effect on NOS expression [6]: inhibit; Effect on NO production ([1]; FIG. 2, LPS 100 ng/ml, words): inhibit; Effect on PGE2 production ([2]; FIG. 2, LPS 100 ng/ml, words): inhibit; Effect on COX-2 expression ([7]; FIG. 2): inhibit; Effect on size of COX-2 ([7]; FIG. 4A, 16 hr, Western blot): much smaller than the native form

**Q.** Which results are given for `C[C@]12CCC(=O)C=C1CC[C@@H]1[C@@H]2[C@@H](O)C[C@@]2(C)[C@H]1CC[C@]2(O)C(=O)CO` [Hydrocortisone, hydrocortisone, reference compound]?
**A.** Nitrite ([1]; 16 h, 10 ug/mL): 34.3 µM; Nitrite [1, 9]: 12.9 µM; inhibition at 10 µg/mL [1, 10]: 32%; inhibition at 10 µg/mL [1, 9]: 40%; PGE2 accumulation ([2]; 16 h, 10 ug/mL): 12.3 ± 2.6 ng/mL; PGE2 accumulation [2, 9]: 9.5 ± 0.5 ng/mL; inhibition at 10 µg/mL [2, 10]: 52%; inhibition at 10 µg/mL [2, 9]: 50%

**Q.** `C[C@@H]1C[C@@H]([C@H](O)CC2CC(=O)NC(=O)C2)C(=O)[C@@H](C)C1` [Cycloheximide, cycloheximide, reference compound] was tested. Which “Effect on TNFα release in the medium” value ([3]; FIG. 7) did it give?
**A.** inhibited the release of TNFα in the medium

**Q.** And the “Effect on spontaneous TNFα release” value [3]?
**A.** inhibit the release of TNFα

**Q.** How did the “Effect on specific activity of COX-2” value ([8]; CMT-3 27 μM, CMT-8 27 μM, aspirin 56 μM, indomethacin 28 μM, words) turn out when `CC(=O)Oc1ccccc1C(=O)O` [Aspirin, aspirin, reference compound] was run?
**A.** significantly inhibited the specific activity of COX-2

**Q.** And the “COX-2 Specific Activity” value ([8]; Table 3, cell-free extracts, 10 μg (aspirin amount not given))?
**A.** 2.1 ± 0.1 PGE2 ng/mg protein

**Q.** With `C[C@@]1(O)c2cccc(O)c2C(O)=C2C(=O)[C@]3(O)C(O)=C(C(N)=O)C(=O)C[C@@H]3C[C@@H]21` [CMT-1, 4-dedimethylaminotetracycline] as the compound, how does the Nitrite [1, 10] read?
**A.** 50.8 µM

**Q.** What about the Nitrite [1, 9] of the same compound?
**A.** 20.3 µM

**Q.** And the PGE2 accumulation ([2]; 16 h, 10 ug/mL)?
**A.** 31.5 ± 2.5 ng/mL

**Q.** What about the PGE2 accumulation [2, 9] of the same compound?
**A.** 30.2 ± 8.0 ng/mL

**Q.** What about the “Effect on spontaneous TNFα release” value [3] of the same compound?
**A.** inhibit the spontaneous TNFα release

**Q.** And the “Inhibition of TNFα (summary statement)” value ([3]; HEK 293 cells transfected with proTNFα cDNA, low levels)?
**A.** inhibiting TNFα

**Q.** And the Nitrite [4]?
**A.** 82.0 ± 33.0 µM

**Q.** And the PGE2 [5]?
**A.** 131.8 ± 37.7 ng/mL
